Experiment [1] concerns the target T1, PBP3 from Escherichia coli (K-12) (Escherichia coli, UniProt P0AD68).
T1 construct: made in house
Kind of experiment: Bocillin-FL fluorescence polarization competition binding, E. coli PBP3. A digest of the protocol: (§1)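 Purified PBPs pre-incubated with inhibitor (E. coli PBP3 1.5 μM, 30 min; P. aeruginosa PBP3 0.75 μM, A. baumannii PBP1a 1 μM and PBP3 0.2 μM, 15 min), then Bocillin-FL 0.1 μM (0.05 μM for PBP1a) added; FP read up to 60 min. EC50 = concentration halving bound Bocillin-FL.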
A general note: In fluorescence polarisation assays a small probe gives low polarisation when free and higher when bound to something large.

In experiment [2] the target is T2, PBP3 from Pseudomonas aeruginosa (PAO1) (Pseudomonas aeruginosa, UniProt G3XD46).
T2 construct: made in house
In words: Bocillin-FL fluorescence polarization competition binding, P. aeruginosa PBP3. To be noted: Binding affinity to P. aeruginosa PBP3; fluorescence polarization competition binding assay using Bocillin-FL; read-out: P. aeruginosa PBP3 Potency. An outline of the steps: as §1

The test system of another experiment is P. aeruginosa ATCC 27853. In words: microbe, parasite or virus in culture. To be noted: Pseudomonas aeruginosa, ATCC27853, read-out: Minimum inhibitory concentration, P. aeruginosa ATCC 27853. It counts as cell-based.
A further experiment has as its system A. baumannii ATCC 19606. In words: microbe, parasite or virus in culture. In kind it is cell-based. The conditions noted are these: Acinetobacter baumannii, ATCC19606, read-out: MIC, A. baumannii ATCC 19606.
The subject of experiment [3] is P. aeruginosa (ΔmexAB-oprM). In words: Broth microdilution MIC in iron-depleted CAMHB (IDM). The conditions noted are these: Pseudomonas aeruginosa; iron-depleted CAMHB (IDM); […]; read-out: Minimum inhibitory concentration, P. aeruginosa ΔmexAB-oprM. It counts as cell-based. Background: In broth dilution the organism is exposed to a series of concentrations in liquid medium.

The next experiment relates to A. baumannii CDC-0045. Kind of experiment: microbe, parasite or virus in culture. It counts as cell-based. To be noted: Acinetobacter baumannii, CDC0045, read-out: MIC, A. baumannii CDC-0045.
Experiment [4] concerns B. thailandensis ATCC 700388. Kind of experiment: microbe, parasite or virus in culture. In kind it is cell-based. To be noted: Burkholderia thailandensis, ATCC700388, read-out: Minimum inhibitory concentration (MIC), B. thailandensis ATCC 700388.
The subject of experiment [5] is B. humptydooensis ATCC BAA-2767. Kind of experiment: microbe, parasite or virus in culture. In kind it is cell-based. The conditions noted are these: Burkholderia humptydooensis, ATCCBAA2767, read-out: Minimum inhibitory concentration (MIC), B. humptydooensis ATCC BAA-2767.
Experiment [6] relates to N. gonorrhoeae ATCC 49226. Kind of experiment: Liquid broth MIC in Fastidious broth. The conditions noted are these: Neisseria gonorrhoeae, ATCC49226, read-out: Minimum Inhibitory Concentration (MIC), N. gonorrhoeae ATCC 49226.
Another experiment concerns N. gonorrhoeae FA1090. Kind of experiment: Liquid broth MIC in Fastidious broth. To be noted: Neisseria gonorrhoeae, FA1090, read-out: Minimum Inhibitory Concentration (MIC), N. gonorrhoeae FA 1090.
For the next experiment, the system named is N. gonorrhoeae MS11. Kind of experiment: Liquid broth MIC in Fastidious broth. To be noted: Neisseria gonorrhoeae, MS11, read-out: Minimum Inhibitory Concentration (MIC), N. gonorrhoeae MS11.
In the next experiment the test system is N. gonorrhoeae WHO G. In words: Liquid broth MIC in Fastidious broth. The conditions noted are these: Neisseria gonorrhoeae, read-out: Minimum Inhibitory Concentration (MIC), N. gonorrhoeae WHO G.
A further experiment has as its system N. gonorrhoeae WHO L. Kind of experiment: Liquid broth MIC in Fastidious broth. To be noted: Neisseria gonorrhoeae, read-out: Minimum Inhibitory Concentration (MIC), N. gonorrhoeae WHO L.
The test system of a further experiment is N. gonorrhoeae WHO Z. In words: Liquid broth MIC in Fastidious broth. The conditions noted are these: Neisseria gonorrhoeae, read-out: Minimum Inhibitory Concentration (MIC), N. gonorrhoeae WHO Z.
The test system of the next experiment is N. gonorrhoeae CDC-0197. Kind of experiment: Liquid broth MIC in Fastidious broth. The conditions noted are these: Neisseria gonorrhoeae, CDC0197, read-out: Minimum Inhibitory Concentration (MIC), N. gonorrhoeae CDC-0197.

In brackets after ≈: the same amount, converted by molar mass.

T2 sequence (G3XD46 whole entry): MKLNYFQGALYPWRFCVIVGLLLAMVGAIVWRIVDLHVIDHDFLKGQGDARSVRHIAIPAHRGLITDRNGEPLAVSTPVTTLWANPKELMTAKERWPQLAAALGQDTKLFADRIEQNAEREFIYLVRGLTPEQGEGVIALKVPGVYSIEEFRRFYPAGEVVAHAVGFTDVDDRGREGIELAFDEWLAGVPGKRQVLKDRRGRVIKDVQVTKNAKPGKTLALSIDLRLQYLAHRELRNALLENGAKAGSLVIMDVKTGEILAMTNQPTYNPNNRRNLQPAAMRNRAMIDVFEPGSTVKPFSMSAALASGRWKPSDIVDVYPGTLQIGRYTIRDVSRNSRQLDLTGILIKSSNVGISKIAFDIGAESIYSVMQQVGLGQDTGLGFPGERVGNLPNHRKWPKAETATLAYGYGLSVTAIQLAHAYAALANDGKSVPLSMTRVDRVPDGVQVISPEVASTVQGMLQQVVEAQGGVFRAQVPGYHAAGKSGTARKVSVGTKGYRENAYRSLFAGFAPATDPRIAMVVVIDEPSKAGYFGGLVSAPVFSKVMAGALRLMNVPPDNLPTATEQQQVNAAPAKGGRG
T1 sequence (P0AD68 1-577): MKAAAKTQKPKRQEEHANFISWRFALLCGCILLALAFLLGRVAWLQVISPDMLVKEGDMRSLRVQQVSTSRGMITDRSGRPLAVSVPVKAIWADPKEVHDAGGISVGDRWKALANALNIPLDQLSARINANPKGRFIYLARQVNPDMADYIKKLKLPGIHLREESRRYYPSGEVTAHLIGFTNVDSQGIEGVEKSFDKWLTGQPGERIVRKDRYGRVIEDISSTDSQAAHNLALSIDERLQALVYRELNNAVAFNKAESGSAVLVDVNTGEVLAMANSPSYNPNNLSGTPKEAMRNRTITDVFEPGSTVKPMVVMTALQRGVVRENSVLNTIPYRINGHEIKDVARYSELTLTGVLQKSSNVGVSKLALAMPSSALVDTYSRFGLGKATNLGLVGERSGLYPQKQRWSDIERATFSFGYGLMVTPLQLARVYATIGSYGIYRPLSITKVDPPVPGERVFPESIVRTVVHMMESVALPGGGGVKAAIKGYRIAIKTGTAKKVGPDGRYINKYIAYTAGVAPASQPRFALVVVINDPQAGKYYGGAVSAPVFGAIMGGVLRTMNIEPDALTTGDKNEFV

A word on the EC50: it is the concentration at which the effect is half-maximal. A high value points to a need for much substance. Regarding `O=C(NCCN1CCN(C(=O)NC(C(=O)N[C@H]2Cc3ccc(F)c(C(=O)O)c3OB2O)c2cc(F)c(O)c(O)c2Cl)C(=O)C1=O)c1nccs1` (stereo partly drawn) [Example 218, (3R)-3-(2-(2-chloro-5-fluoro-3,4-dihydroxyphenyl)-2-(2,3-dioxo-4-(2-(thiazole-2-carboxamido)ethyl)piperazine-1-carboxamido)acetamido)-7-fluoro-2-hydroxy-3,4-dihydro-2H-benzo[e][1,2]oxaborinine-8-carboxylic acid], the EC50 in experiment [1] was below 10 µM. Besides, in [2], the IC50 is below 10 µM. Moreover, the MIC was 2 to 4 µg/mL (≈ 2.71 to 5.43 µM) in the experiment on P. aeruginosa ATCC 27853; 2 to 4 µg/mL (≈ 2.71 to 5.43 µM) in the experiment with A. baumannii ATCC 19606; below 1 µg/mL in [3]; 8 to 16 µg/mL (≈ 10.9 to 21.7 µM) in the experiment with A. baumannii CDC-0045; 2 to 4 µg/mL (≈ 2.71 to 5.43 µM) in [4]; 2 to 4 µg/mL (≈ 2.71 to 5.43 µM) in [5]. For the same compound, the MIC is 16 to 32 µg/mL (≈ 21.7 to 43.4 µM) in experiment [6]; 1 to 2 µg/mL (≈ 1.36 to 2.71 µM) in the experiment with N. gonorrhoeae FA1090; 16 to 32 µg/mL (≈ 21.7 to 43.4 µM) in the experiment with N. gonorrhoeae MS11; 16 to 32 µg/mL (≈ 21.7 to 43.4 µM) in the experiment on N. gonorrhoeae WHO G; above 64 µg/mL in the experiment on N. gonorrhoeae WHO L; above 64 µg/mL with N. gonorrhoeae WHO Z. For the same compound, in the experiment on N. gonorrhoeae CDC-0197, the MIC was 16 to 32 µg/mL (≈ 21.7 to 43.4 µM).

Consider `O=C(NCCN1CCN(C(=O)NC(C(=O)N[C@H]2Cc3ccc(F)c(C(=O)O)c3OB2O)c2cc(F)c(O)c(O)c2Cl)C(=O)C1=O)Nc1ccc(O)cc1` (stereo partly drawn) [Example 219, (3R)-3-(2-(2-chloro-5-fluoro-3,4-dihydroxyphenyl)-2-(4-(2-(3-(4-hydroxyphenyl)ureido)ethyl)-2,3-dioxopiperazine-1-carboxamido)acetamido)-7-fluoro-2-hydroxy-3,4-dihydro-2H-benzo[e][1,2]oxaborinine-8-carboxylic acid], for which the EC50 in experiment [1] was below 10 µM. Moreover, the IC50 in [2] is below 10 µM. Further, the MIC was 2 to 4 µg/mL (≈ 2.63 to 5.26 µM) in the experiment on P. aeruginosa ATCC 27853; below 1 µg/mL in the experiment on A. baumannii ATCC 19606; below 1 µg/mL in experiment [3]; 8 to 16 µg/mL (≈ 10.5 to 21 µM) with A. baumannii CDC-0045; 8 to 16 µg/mL (≈ 10.5 to 21 µM) in [4]; 8 to 16 µg/mL (≈ 10.5 to 21 µM) in experiment [5]. Also, the MIC in experiment [6] is 16 to 32 µg/mL (≈ 21 to 42.1 µM); in the experiment on N. gonorrhoeae FA1090 it was 1 to 2 µg/mL (≈ 1.31 to 2.63 µM); in the experiment on N. gonorrhoeae MS11, 16 to 32 µg/mL (≈ 21 to 42.1 µM); in the experiment with N. gonorrhoeae WHO G, 16 to 32 µg/mL (≈ 21 to 42.1 µM); with N. gonorrhoeae WHO L it was above 64 µg/mL; with N. gonorrhoeae WHO Z, 16 to 32 µg/mL (≈ 21 to 42.1 µM). Also, the MIC in the experiment on N. gonorrhoeae CDC-0197 is above 64 µg/mL.

With `O=C(NCCN1CCN(C(=O)NC(C(=O)N[C@H]2Cc3ccc(F)c(C(=O)O)c3OB2O)c2cc(F)c(O)c(O)c2Cl)C(=O)C1=O)Nc1cccc(O)c1` (stereo partly drawn) [Example 220, (3R)-3-(2-(2-chloro-5-fluoro-3,4-dihydroxyphenyl)-2-(4-(2-(3-(3-hydroxyphenyl)ureido)ethyl)-2,3-dioxopiperazine-1-carboxamido)acetamido)-7-fluoro-2-hydroxy-3,4-dihydro-2H-benzo[e][1,2]oxaborinine-8-carboxylic acid], the EC50 in [1] is below 10 µM. Also, the IC50 in experiment [2] was below 10 µM. The MIC in the experiment on P. aeruginosa ATCC 27853 is 2 to 4 µg/mL (≈ 2.63 to 5.26 µM); with A. baumannii ATCC 19606 it was below 1 µg/mL; in experiment [3] it was below 1 µg/mL; with A. baumannii CDC-0045, 2 to 4 µg/mL (≈ 2.63 to 5.26 µM); in experiment [4], 8 to 16 µg/mL (≈ 10.5 to 21 µM); in [5] it was 32 to 64 µg/mL (≈ 42.1 to 84.1 µM). The MIC in experiment [6] was 16 to 32 µg/mL (≈ 21 to 42.1 µM); in the experiment with N. gonorrhoeae FA1090, 1 to 2 µg/mL (≈ 1.31 to 2.63 µM); with N. gonorrhoeae MS11 it was 16 to 32 µg/mL (≈ 21 to 42.1 µM); in the experiment on N. gonorrhoeae WHO G, 4 to 8 µg/mL (≈ 5.26 to 10.5 µM); in the experiment on N. gonorrhoeae WHO L, above 64 µg/mL; with N. gonorrhoeae WHO Z, above 64 µg/mL. Moreover, the MIC in the experiment on N. gonorrhoeae CDC-0197 was above 64 µg/mL.
